Reference: patent US10196403B2, “Compounds and compositions and uses thereof” (Sunovion Pharmaceuticals Inc., priority 2016, dated 2019)
Where two headings read alike, the source gives them in different places.

System: mice
Test: Neuropharmacological Assay (SmartCube)
Assay type: in vivo
Conditions: for minimal effective dose: Mus musculus, read-out: POTENCY (minimal effective dose, MED); for AD: ADHD (SmartCube probability) / AG: analgesic (SmartCube probability) / AX: anxiolytic (SmartCube probability) / CE: cognitive enhancer (SmartCube probability) / DP: anti-depressant (SmartCube probability) / MS: mood stabilizer (SmartCube probability) / PS: anti-psychotic (SmartCube probability) / SD: sedative hypnotic (SmartCube probability) / UN: uncharacterized CNS activity (SmartCube probability): mice, i.p. 15 min before test, most efficacious dose(s) of 3 doses
Excerpt: Neuropharmacological Assay (SmartCube™)
Neurosci. 2011 Sep. 9; 5:103 (doi: 10.3389/fnins.2011.00103) (“Roberds”). As reported in Roberds, because psychiatric diseases generally result from disorders of cell-cell communication, circuitry, intact systems are useful in detecting improvement in disease-relevant endpoints. These endpoints are typically behavioral in nature, often requiring human observation and interpretation. To facilitate testing of multiple compounds for behavioral effects relevant to psychiatric disease, PsychoGenics, Inc. (Tarrytown, N.Y., “PGI”) developed SmartCube™, an automated system in which behaviors of compound-treated mice are captured by digital video and analyzed with computer algorithms. (D. Brunner et al., Drug Discov. Today 2002, 7:S107-S112). PGI Analytical Systems uses data from SmartCube™ to compare the behavioral signature of a test compound to a database of behavioral signatures obtained using a large set of diverse reference compounds. (The composition of the database as well as validation of the method is further described in Roberds). In this way, the neuropharmacological effects of a test compound can be predicted by similarity to major classes of compounds, such as antipsychotics, anxiolytics and antidepressants.
The SmartCube™ system produces an activity signature indicating the probability that the activity of the test compound at the administered dose matches a given class of neuropharmacological agents. (See, e.g., Roberds, FIGS. 2 and 3). The test compound is simultaneously compared against multiple classes of agents; thus, a separate probability is generated for each behavioral effect measured (e.g., anxiolytic activity, analgesic activity, etc.). In the table below, these probabilities are reported for each behavioral effect measured as follows:
where LOQ is the limit of quantification.
Provided compounds were dissolved in a mixture of Pharmasolve™ (N-methyl-2-pyrrolidone), polyethylene glycol and propylene glycol, and were injected i.p. 15 min. before the behavioral test. For each compound, injections were administered at 3 different doses. For each behavioral effect measured, results for the most efficacious dose(s) are presented. In the table below, DP: anti-depressant; AX: anxiolytic; SD: sedative hypnotic; PS: anti-psychotic; MS: mood stabilizer; AD: ADHD; CE: cognitive enhancer; AG: analgesic; UN: uncharacterized CNS activity.
The potency of many of the compounds in the table was also determined in the SmartCube™ system. Test compounds were routinely examined at dose levels of 0.3, 1, 3 10 and 30 mg per kg (mpk), although the dose range was increased or decreased if necessary to obtain a full dose response curve. A compound's minimal effective dose (MED) is a measure of the compounds potency. The MED was defined as the dose (in mpk) having 50% or more total activity in SmartCube.

[1] = MED = dose having 50% or more total activity in SmartCube

Compound	minimal effective dose [1] [mg/kg]	AD: ADHD (SmartCube probability)	AG: analgesic (SmartCube probability)	AX: anxiolytic (SmartCube probability)	CE: cognitive enhancer (SmartCube probability)	DP: anti-depressant (SmartCube probability)	MS: mood stabilizer (SmartCube probability)	PS: anti-psychotic (SmartCube probability)	SD: sedative hypnotic (SmartCube probability)	UN: uncharacterized CNS activity (SmartCube probability)	minimal effective dose [mg/kg]
CNC[C@H]1OCCc2cc3c(cc21)OCO3 (stereo in doubt) [Example 5, (S)-1-(7,8-dihydro-5H-[1,3]dioxolo[4,5-g]isochromen-5-yl)-N-methylmethanamine]	> 30	+ (LOQ≤ + <5%)	++ (5%≤ ++ <25%)	++ (5%≤ ++ <25%)	+ (LOQ≤ + <5%)	+ (LOQ≤ + <5%)	+ (LOQ≤ + <5%)	+ (LOQ≤ + <5%)	+ (LOQ≤ + <5%)	+ (LOQ≤ + <5%)	–
CNC[C@@H]1OCCc2cc3c(cc21)OCO3 (stereo in doubt) [Example 6, (R)-1-(7,8-dihydro-5H-[1,3]dioxolo[4,5-g]isochromen-5-yl)-N-methylmethanamine]	10 to 30	+ (LOQ≤ + <5%)	+ (LOQ≤ + <5%)	++ (5%≤ ++ <25%)	+ (LOQ≤ + <5%)	+ (LOQ≤ + <5%)	++ (5%≤ ++ <25%)	++ (5%≤ ++ <25%)	+ (LOQ≤ + <5%)	++++ (50%≤ ++++)	–
CNC[C@H]1OCCc2ccc3c(c21)OCO3 [Example 1, (S)-1-(6,9-dihydro-7H-[1,3]dioxolo[4,5-h]isochromen-9-yl)-N-methylmethanamine]	–	+ (LOQ≤ + <5%)	+ (LOQ≤ + <5%)	++ (5%≤ ++ <25%)	+ (LOQ≤ + <5%)	++++ (50%≤ ++++)	+ (LOQ≤ + <5%)	++ (5%≤ ++ <25%)	++ (5%≤ ++ <25%)	+ (LOQ≤ + <5%)	< 3
CNC[C@H]1OCCc2c1ccc1c2OCO1 [Example 3, (S)-1-(8,9-dihydro-6H-[1,3]dioxolo[4,5-f]isochromen-6-yl)-N-methylmethanamine]	10 to 30	++ (5%≤ ++ <25%)	++ (5%≤ ++ <25%)	++ (5%≤ ++ <25%)	+ (LOQ≤ + <5%)	+++ (25%≤ +++ <50%)	+ (LOQ≤ + <5%)	+ (LOQ≤ + <5%)	+ (LOQ≤ + <5%)	+ (LOQ≤ + <5%)	–
CNC[C@@H]1OCCc2c1ccc1c2OCO1 [Example 4, (R)-1-(8,9-dihydro-6H-[1,3]dioxolo[4,5-f]isochromen-6-yl)-N-methylmethanamine]	3 to 10	+ (LOQ≤ + <5%)	++ (5%≤ ++ <25%)	+ (LOQ≤ + <5%)	+ (LOQ≤ + <5%)	++++ (50%≤ ++++)	+ (LOQ≤ + <5%)	+ (LOQ≤ + <5%)	+ (LOQ≤ + <5%)	+ (LOQ≤ + <5%)	–
NC[C@H]1OCCc2ccc3c(c21)OCO3 [Example 7, (S)-(6,9-dihydro-7H-[1,3]dioxolo[4,5-h]isochromen-9-yl)methanamine]	< 3	++ (5%≤ ++ <25%)	+++ (25%≤ +++ <50%)	+++ (25%≤ +++ <50%)	++ (5%≤ ++ <25%)	++ (5%≤ ++ <25%)	++ (5%≤ ++ <25%)	++ (5%≤ ++ <25%)	+ (LOQ≤ + <5%)	++ (5%≤ ++ <25%)	–
NC[C@@H]1OCCc2ccc3c(c21)OCO3 [Example 8, (R)-(6,9-dihydro-7H-[1,3]dioxolo[4,5-h]isochromen-9-yl)methanamine]	3 to 10	+ (LOQ≤ + <5%)	++ (5%≤ ++ <25%)	++ (5%≤ ++ <25%)	++ (5%≤ ++ <25%)	++ (5%≤ ++ <25%)	+ (LOQ≤ + <5%)	++ (5%≤ ++ <25%)	+ (LOQ≤ + <5%)	+++ (25%≤ +++ <50%)	–
CNC[C@H]1OCCc2ccc3c(c21)OCCO3 [Example 9, (S)-N-methyl-1-(2,3,7,10-tetrahydro-8H-[1,4]dioxino[2,3-h]isochromen-10-yl)methanamine]	3 to 10	+ (LOQ≤ + <5%)	++ (5%≤ ++ <25%)	++ (5%≤ ++ <25%)	+ (LOQ≤ + <5%)	+++ (25%≤ +++ <50%)	++ (5%≤ ++ <25%)	++ (5%≤ ++ <25%)	++ (5%≤ ++ <25%)	+++ (25%≤ +++ <50%)	–
CNC[C@@H]1OCCc2ccc3c(c21)OCCO3 [Example 10, (R)-N-methyl-1-(2,3,7,10-tetrahydro-8H-[1,4]dioxino[2,3-h]isochromen-10-yl)methanamine]	10 to 30	+ (LOQ≤ + <5%)	+ (LOQ≤ + <5%)	++ (5%≤ ++ <25%)	++ (5%≤ ++ <25%)	++ (5%≤ ++ <25%)	+ (LOQ≤ + <5%)	++ (5%≤ ++ <25%)	+ (LOQ≤ + <5%)	+++ (25%≤ +++ <50%)	–
NC[C@H]1OCCc2c1ccc1c2OCO1 [Example 11, (S)-(8,9-dihydro-6H-[1,3]dioxolo[4,5-f]isochromen-6-yl)methanamine]	3 to 10	++ (5%≤ ++ <25%)	+ (LOQ≤ + <5%)	+ (LOQ≤ + <5%)	+ (LOQ≤ + <5%)	++++ (50%≤ ++++)	+ (LOQ≤ + <5%)	+ (LOQ≤ + <5%)	+ (LOQ≤ + <5%)	+ (LOQ≤ + <5%)	–
